Here are results for six molecules from US8586599B2, “Polymorphic forms of 6-(1-methyl-1H-pyrazol-4-yl)-2-{3-[5-(2-morpholin-4-yl-ethoxy)-pyrimidin-2-yl]-benzyl}-2H-pyridazin-3-one dihydrogenphosphate and processes of manufacturing thereof” (Merck Patent GmbH, priority 2008, dated 2013).

A short description of series [1]: Water Vapour Sorption Isotherm (25° C.). The series is classed as physicochemical. Particulars: for Relative humidity above which re-conversion to the hydrate form occurs upon adsorption / Relative humidity below which hydrate water is lost / Relative humidity range with small water uptake levels upon adsorption / Relative humidity above which pronounced water uptake levels are observed / Water uptake levels at elevated relative humidity (hydrate formation): 25° C.; for Relative humidity below which hydrate water is lost: desorption. From the text: The crystalline modifications of the present invention can be characterized according to standard methods which can be found e.g. in Rolf Hilfiker, ‘Polymorphism in the Pharmaceutical Industry’, Wiley-VCH, Weinheim 2006, and references therein, e.g. X-Ray diffraction (XRD; chapter 6), IR and Raman spectroscopy (chapter 5), Differential Scanning Calorimetry (DSC) and Thermogravimetric Analysis (TGA) (chapter 3), Water Vapour Sorption Studies (chapter 9), or which can be found e.g. in H. G. Brittain (editor), Polymorphism in Pharmaceutical Solids, Vol. 95, Marcel Dekker Inc., New York 1999 (chapter 6: all there mentioned techniques).
Pronounced water uptake levels are observed above 70% RH (crystalline modification A type a) and above 90% RH (crystalline modification A type b), respectively, which results in formation of dihydrate crystalline modification H1 (water uptake levels of approx. 6 wt %) at elevated relative humidity (RH).
Pronounced water uptake levels are observed above 70% RH, which results in formation of crystalline hydrate modification NF5 (water uptake levels of approx. 5-6 wt %) at elevated relative humidity (RH).

Series [2] in a line: Competitive slurry conversion of crystalline modifications H1 and NF5 in water (Example 12). The format is physicochemical. Particulars: aqueous slurrying at 25° C., in words. Here is the method:
(§1) A PTFE-coated stirring rod was inserted into the dispersion prior to sealing the vial. The dispersion was agitated in closed vial for 12 days, using a magnetic stirrer, at 25° C. The solid-state residue was filtered, and analyzed by XRD to monitor morphic form after solvent slurrying.

Series [3] is described as follows: Competitive slurry conversion of crystalline modifications H1 and NF3 in water (Example 13). The format is physicochemical. Particulars: aqueous slurrying at 25° C., in words. Here is the method: A PTFE-coated stirring rod was inserted into the dispersion prior to sealing the vial. The dispersion was agitated in closed vial for 5 days, using a magnetic stirrer, at 25° C. The solid-state residue was filtered, and analyzed by XRD to monitor morphic form after solvent slurrying.

Series [4] can be described thus: Kinetic solubility determination in water:acetone 30:70 (v:v) after 2 hours (Example 14).
Method: (§2) The dispersion was agitated at RT for 2 hours at 450 rpm. After filtration of the dispersion after 2 hours, the filtrate is analysed by HPLC (dilution may be necessary before analysis).
Series [5] in a line: Competitive slurry conversion of crystalline modifications A1 and NF3 in organic solvents (Example 10). The series is classed as physicochemical. Particulars: 25° C. and 50° C., in words. How it is done:
PTFE-coated stirring rods were inserted into the dispersions prior to sealing the vials. Dispersions were agitated in closed vials for 5 days, using a magnetic stirrer, at 25° C. and 50° C., respectively. Solid-state residues were filtered, and analyzed by XRD to monitor morphic form after solvent slurrying.

Another series can be described thus: physchem. Particulars: organic solvent or mixture, thermodynamic from solid.
The nature of series [6]: Competitive slurry conversion of crystalline modifications A1 and NF5 in water (Example 11). The format is physicochemical. Particulars: aqueous slurrying at 25° C., in words. Here is the method:
as §1

The nature of series [7]: Solubility determination in water (Example 9). The series is classed as physicochemical. The settings on record: for solubility at 1 h / solubility at 2 h: thermodynamic from solid, water, ambient temperature, maximal possible concentration 10 mg/mL; for pH value: solubility sample in water. How it is done: The mixture is stirred at 1000 rpm on a magnetic stirring plate at ambient temperature. At the sampling point 100 μL of the respective solution/suspension are transferred to a 500 μL Eppendorff cap and are centrifuged for 5 min at 14000 rpm.

Series [8] can be described thus: Stability in aqueous solution, salt compared to free base. The format is physicochemical. Particulars: in words, no data shown.

Values after ≈ are worked out from the molar mass of the structure shown.

Method for physchem: as §2

On to `Cn1cc(-c2ccc(=O)n(Cc3cccc(-c4ncc(OCCN5CCOCC5)cn4)c3)n2)cn1.O.O.O=P(O)(O)O` [crystalline modification H1, 6-(1-methyl-1H-pyrazol-4-yl)-2-{3-[5-(2-morpholin-4-yl-ethoxy)-pyrimidin-2-yl]-benzyl}-2H-pyridazin-3-one dihydrogenphosphate dihydrate], for which, in series [1], the “Relative humidity above which re-conversion to the hydrate form occurs upon adsorption” value is greater than 70 % RH and the “Relative humidity below which hydrate water is lost” value is < 40 % relative humidity (RH). Moreover, the “Relative stability of forms H1 and NF5” value in [2] is “stable form in an aqueous dispersion system”. Also, the “Relative stability of forms H1 and NF3” value in [3] is given as “more stable form in an aqueous dispersion system”.

Take `Cn1cc(-c2ccc(=O)n(Cc3cccc(-c4ncc(OCCN5CCOCC5)cn4)c3)n2)cn1.O=P(O)(O)O` [crystalline modification A1, 6-(1-methyl-1H-pyrazol-4-yl)-2-{3-[5-(2-morpholin-4-yl-ethoxy)-pyrimidin-2-yl]-benzyl}-2H-pyridazin-3-one dihydrogenphosphate anhydrate]: the “Solubility water:acetone (30:70, v:v) after 2 h” value in series [4] (kinetic solubility, RT, 2 hours, 450 rpm) stood at 18200 µg/mL. Moreover, the “Relative humidity range with small water uptake levels upon adsorption” value in series [1] (type a) is reported as 0-70 % relative humidity (RH); in series [1] (type b), 0-90 % RH. Besides, the “Relative humidity above which pronounced water uptake levels are observed” value in series [1] (type a, results in formation of dihydrate H1) is reported as “above 70 % RH”; in series [1] (type b, results in formation of dihydrate H1), “above 90 % RH”. The “Water uptake levels at elevated relative humidity (hydrate formation)” value in series [1] (listed as A1) is given as “approx. 6 wt %”. The “Physical stable form in the humidity range 0% up to (upper limit)” value in [1] (varying relative humidity conditions) is recorded as “at least 70 % RH”. In addition, in [5], the “Relative stability of forms A1 and NF3” value is “more stable form”.

As usually defined, the solubility is how much of the substance goes into solution per volume. As for `Cn1cc(-c2ccc(=O)n(Cc3cccc(-c4ncc(OCCN5CCOCC5)cn4)c3)n2)cn1.O=P(O)(O)O` [crystalline modification NF3, 6-(1-methyl-1H-pyrazol-4-yl)-2-{3-[5-(2-morpholin-4-yl-ethoxy)-pyrimidin-2-yl]-benzyl}-2H-pyridazin-3-one dihydrogenphosphate], in series [4] (water:acetone (30:70, v:v), in words), the “Solubility level after 2 hours compared to form A1” value is “lower solubility level”. The “Relative humidity range with small water uptake levels upon adsorption” value in [1] was 0-70 % relative humidity (RH). For the same molecule, in [1] (listed as NF3), the “Water uptake levels at elevated relative humidity (hydrate formation)” value is reported as 5-6 wt %. Also, the “Relative humidity above which pronounced water uptake levels are observed” value in series [1] (results in formation of hydrate NF5) is recorded as “above 70 % RH”. Further, the solubility at 2 h in “physchem” is 10600 µg/mL.

`Cn1cc(-c2ccc(=O)n(Cc3cccc(-c4ncc(OCCN5CCOCC5)cn4)c3)n2)cn1.O.O=P(O)(O)O` [crystalline modification NF5, 6-(1-methyl-1H-pyrazol-4-yl)-2-{3-[5-(2-morpholin-4-yl-ethoxy)-pyrimidin-2-yl]-benzyl}-2H-pyridazin-3-one dihydrogenphosphate hydrate]: the “Relative stability of forms A1 and NF5” value in series [6] is “more stable form in an aqueous dispersion system”. Further, in series [1], the “Relative humidity above which re-conversion to the hydrate form occurs upon adsorption” value is greater than 70 % RH and the “Relative humidity below which hydrate water is lost” value was < 40 % relative humidity (RH).

Regarding `Cn1cc(-c2ccc(=O)n(Cc3cccc(-c4ncc(OCCN5CCOCC5)cn4)c3)n2)cn1` [free base, 6-(1-methyl-1H-pyrazol-4-yl)-2-{3-[5-(2-morpholin-4-yl-ethoxy)-pyrimidin-2-yl]-benzyl}-2H-pyridazin-3-one], in series [7] (sample point 1 h), the solubility at 1 h was determined as 167 µg/mL (≈ 353 µM). For the same molecule, the solubility at 2 h in [7] (sample point 2 h) is 156 µg/mL (≈ 329 µM).

For the molecule `Cn1cc(-c2ccc(=O)n(Cc3cccc(-c4ncc(OCCN5CCOCC5)cn4)c3)n2)cn1.O=P(O)(O)O` [dihydrogenphosphate, 6-(1-methyl-1H-pyrazol-4-yl)-2-{3-[5-(2-morpholin-4-yl-ethoxy)-pyrimidin-2-yl]-benzyl}-2H-pyridazin-3-one dihydrogenphosphate], the “Solubility in aqueous solutions compared to free base” value in series [7] (in words) is recorded as “significantly higher solubility”. In series [7] (sample point 1 h), this molecule showed a pH value of 3.91 and a solubility at 1 h of 9860 µg/mL. Moreover, in [7] (sample point 2 h), the pH value is given as 3.97 and the solubility at 2 h was greater than 10000 µg/mL. Also, the “Stability in aqueous solution compared to free base” value in series [8] is “significantly superior stability in aqueous solution”.
